Laboratory results from ChEMBL document CHEMBL1138104, “Isolation, structure elucidation, antioxidative and immunomodulatory properties of two novel dihydrocoumarins from Aloe vera” (Bioorg Med Chem Lett, 2006).
Calls of active or inactive are those of the source. No cut-off for these calls is given here.

Legend:
[1] = system: Radical scavenging activity; assay: Inhibition of superoxide radical scavenging activity; type: functional; settings: dose or concentration not given here
[2] = system: Peritoneal macrophage cell; assay: Enhancement of respiratory burst in rat peritoneal macrophage at 200 uM; type: functional, cell-based
[3] = system: Radical scavenging activity; assay: Inhibition of hydroxyl radical scavenging activity; type: functional; settings: dose or concentration not given here
[4] = system: Peritoneal macrophage cell; assay: Phagocytic function of rat peritoneal macrophage at 50-200 ug/ml; type: functional, cell-based

Row | SMILES | inhibition [1] [%] | Activity [2] | inhibition [3] [%] | Activity [4]
1 | CCOC(=O)C[C@H](c1ccc(O)cc1)c1c(O)cc(O)c(-c2cc(OC)cc(=O)o2)c1C | 30.3 | inactive | 42.3 | 
2 | COc1cc(-c2c(O)cc3c(c2C)[C@@H](c2ccc(O)cc2)CC(=O)O3)oc(=O)c1 | 42.3 | Active | 43.7 | Dose-dependent effect
